Measurements published in PubChem BioAssay (NCI).
Values joined by “and” are separate entries in the source; they are usually repeats but may differ in a detail not shown here. Equal entries are not always repeated.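 Five concentrations, 48 hours, 96-well plates. GI50 marks 50% less growth. TGI is the concentration that stops growth completely.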

Tests used:
Assay in all cases: NCI anticancer screen, dose series, 48 h
[1] = tested on: SF-268 CNS
[2] = tested on: U251 CNS
[3] = tested on: LOX IMVI melanoma
[4] = tested on: SK-MEL-2 melanoma
[5] = tested on: OVCAR-3 ovarian
[6] = tested on: CCRF-CEM leukemia
[7] = tested on: HOP-92 NSCLC
[8] = tested on: MALME-3M melanoma
[9] = tested on: RPMI-8226 leukemia
[10] = tested on: UO-31 renal
[11] = tested on: CAKI-1 renal
[12] = tested on: MOLT-4 leukemia
[13] = tested on: SK-MEL-28 melanoma
[14] = tested on: UACC-62 melanoma
[15] = tested on: HCT-116 colon
[16] = tested on: KM12 colon
[17] = tested on: IGROV1 ovarian
[18] = tested on: OVCAR-5 ovarian
[19] = tested on: SNB-78 CNS
[20] = tested on: HOP-18 NSCLC
[21] = tested on: NCI-H226 lung
[22] = tested on: EKVX NSCLC
[23] = tested on: OVCAR-4 ovarian
[24] = tested on: SK-OV-3 ovarian
[25] = tested on: ACHN renal
[26] = tested on: 786-0 renal
[27] = tested on: HCT-15 colon
[28] = tested on: HT29 colon
[29] = tested on: DMS 114 small cell lung
[30] = tested on: TK-10 renal
[31] = tested on: A498 renal
[32] = tested on: SNB-75 CNS
[33] = tested on: M19-MEL melanoma
[34] = tested on: SNB-19 CNS
[35] = tested on: NCI-H460 lung
[36] = tested on: RXF 393 renal
[37] = tested on: DLD-1 colon
[38] = tested on: M14 melanoma
[39] = tested on: KM20L2 colon
[40] = tested on: NCI-H522 lung
[41] = tested on: NCI-H23 lung
[42] = tested on: SW-620 colon
[43] = tested on: HL-60(TB) leukemia
[44] = tested on: SF-295 CNS
[45] = tested on: DMS 273 small cell lung
[46] = tested on: SR leukemia
[47] = tested on: COLO 205 colon
[48] = tested on: LXFL 529 NSCLC
[49] = tested on: K-562 leukemia
[50] = tested on: SF-539 CNS
[51] = tested on: HCC-2998 colon
[52] = tested on: UACC-257 melanoma
[53] = tested on: HOP-62 NSCLC
[54] = tested on: A549 NSCLC
[55] = tested on: SN12C renal
[56] = tested on: SK-MEL-5 melanoma
[57] = tested on: OVCAR-8 ovarian
[58] = tested on: XF 498 CNS

Compound: Cc1ccc(-c2c(N)nc(NC#N)nc2CCC(=O)Nc2ccccc2[N+](=O)[O-])cc1
- TGI [1]: > 100 µM
- TGI [2]: > 100 µM
- TGI [3]: > 100 µM
- TGI [4]: > 100 µM
- TGI [5]: > 100 µM
- TGI [6]: > 100 µM
- TGI [7]: > 100 µM
- TGI [8]: > 100 µM
- TGI [9]: > 100 µM
- TGI [10]: > 100 µM
- TGI [11]: > 100 µM
- TGI [12]: > 100 µM
- TGI [13]: > 100 µM
- TGI [14]: > 100 µM
- TGI [15]: > 100 µM
- TGI [16]: > 100 µM
- TGI [17]: > 100 µM
- TGI [18]: > 100 µM
- TGI [19]: > 100 µM
- TGI [20]: > 100 µM
- TGI [21]: > 100 µM
- TGI [22]: > 100 µM
- TGI [23]: > 100 µM
- TGI [24]: > 100 µM
- TGI [25]: > 100 µM
- TGI [26]: > 100 µM
- TGI [27]: > 100 µM
- TGI [28]: > 100 µM
- TGI [29]: > 100 µM
- TGI [30]: > 100 µM
- TGI [31]: > 100 µM
- TGI [32]: > 100 µM
- TGI [33]: > 100 µM
- TGI [34]: > 100 µM
- TGI [35]: > 100 µM
- TGI [36]: > 100 µM
- TGI [37]: > 100 µM
- TGI [38]: > 100 µM
- TGI [39]: > 100 µM
- TGI [40]: > 100 µM
- TGI [41]: > 100 µM
- TGI [42]: > 100 µM
- TGI [43]: > 100 µM
- TGI [44]: > 100 µM
- TGI [45]: > 100 µM
- TGI [46]: > 100 µM
- TGI [47]: > 100 µM
- TGI [48]: > 100 µM
- TGI [49]: > 100 µM
- TGI [50]: > 100 µM
- TGI [51]: > 100 µM
- TGI [52]: > 100 µM
- TGI [53]: > 100 µM
- TGI [54]: > 100 µM
- TGI [55]: > 100 µM
- TGI [56]: > 100 µM

Compound: O=C(/C=C/c1ccccc1)/C=C/c1ccccc1O
- TGI [1]: 79.4 µM
- TGI [2]: 32.7 µM
- TGI [3]: 33.8 µM
- TGI [4]: > 100 µM
- TGI [5]: 0.842 µM
- TGI [6]: 48.1 µM
- TGI [7]: > 100 µM
- TGI [8]: 1.83 µM
- TGI [9]: 43.8 µM
- TGI [10]: 31.8 µM
- TGI [11]: 64.6 µM
- TGI [12]: 63.1 µM
- TGI [13]: 81 µM
- TGI [14]: 38.8 µM
- TGI [15]: 28.7 µM
- TGI [16]: 31.7 µM
- TGI [17]: 35.7 µM
- TGI [18]: 65.3 µM
- TGI [19]: > 100 µM
- TGI [20]: 1.76 µM
- TGI [21]: 58.1 µM
- TGI [22]: 39.8 µM
- TGI [24]: 57.5 µM
- TGI [25]: 42.1 µM
- TGI [26]: 32.4 µM
- TGI [27]: 32.8 µM
- TGI [28]: 47.6 µM
- TGI [29]: 35.3 µM
- TGI [30]: 96.3 µM
- TGI [31]: 70.9 µM
- TGI [33]: 33.6 µM
- TGI [34]: 61.5 µM
- TGI [35]: 39.7 µM
- TGI [36]: 37.3 µM
- TGI [37]: 36.9 µM
- TGI [38]: 50.7 µM
- TGI [39]: 34.8 µM
- TGI [40]: 33.3 µM
- TGI [41]: 49.3 µM
- TGI [57]: 30.6 µM
- TGI [42]: 23.8 µM
- TGI [43]: 35.8 µM
- TGI [44]: 48.8 µM
- TGI [58]: > 100 µM
- TGI [46]: 72.7 µM
- TGI [47]: 31.1 µM
- TGI [48]: 33.7 µM
- TGI [49]: 38.9 µM
- TGI [50]: 44.3 µM
- TGI [51]: 26.8 µM
- TGI [52]: 44.3 µM
- TGI [53]: > 100 µM
- TGI [54]: 54.3 µM
- TGI [55]: 30.4 µM
- TGI [56]: 41.6 µM

Compound: CCCCCCCCCCCCC(=O)OC(c1cnco1)c1nc(C(O)CC(O)C(O)C(C)O)co1 (stereo unspecified)
- GI50 [1]: 4.56 µM
- TGI [1]: > 47.3 µM
- GI50 [2]: 0.72 µM
- TGI [2]: > 62.8 µM
- GI50 [3]: 0.735 µM
- TGI [3]: > 42.4 µM
- GI50 [4]: 4.79 µM
- TGI [4]: > 66 µM
- GI50 [5]: 4.61 µM
- TGI [5]: > 100 µM
- GI50 [6]: 0.838 µM
- TGI [6]: > 61.5 µM
- GI50 [7]: 1.62 µM
- TGI [7]: > 100 µM
- GI50 [8]: 3.61 µM
- TGI [8]: > 100 µM
- GI50 [9]: 0.694 µM
- TGI [9]: 29.2 µM
- GI50 [10]: 5.77 µM
- TGI [10]: > 100 µM
- GI50 [11]: 4.96 µM
- TGI [11]: > 55.3 µM
- GI50 [12]: 0.537 µM
- TGI [12]: 5.14 µM
- GI50 [13]: 0.686 µM
- TGI [13]: > 64.2 µM
- GI50 [14]: 0.896 µM
- TGI [14]: 2.87 µM
- GI50 [15]: 0.459 µM
- TGI [15]: > 100 µM
- GI50 [16]: 0.359 µM
- TGI [16]: 21.9 µM
- GI50 [17]: 1.71 µM
- TGI [17]: > 100 µM
- TGI [18]: > 100 µM
- TGI [20]: > 100 µM
- GI50 [21]: 0.28 µM
- GI50 [22]: 6.56 µM
- TGI [22]: > 100 µM
- GI50 [23]: 2.02 µM
- TGI [23]: 91.5 µM
- GI50 [24]: 4.64 µM
- TGI [24]: > 100 µM
- GI50 [25]: 6.38 µM
- TGI [25]: > 71.9 µM
- GI50 [26]: 1.02 µM
- TGI [26]: > 100 µM
- TGI [27]: > 100 µM
- GI50 [28]: 1.1 µM
- TGI [28]: > 100 µM
- TGI [29]: 3.96 µM
- GI50 [30]: 5.04 µM
- TGI [30]: > 76.5 µM
- TGI [31]: > 100 µM
- GI50 [32]: 2.91 µM
- TGI [32]: 15.9 µM
- TGI [33]: > 52.7 µM
- TGI [34]: > 100 µM
- GI50 [35]: 0.443 µM
- TGI [35]: > 37 µM
- GI50 [36]: 0.486 µM
- TGI [36]: 64.2 µM
- TGI [37]: > 100 µM
- GI50 [38]: 0.794 µM
- TGI [38]: > 63.8 µM
- TGI [39]: > 48.2 µM
- GI50 [40]: 3.18 µM
- TGI [40]: > 25.1 µM
- GI50 [41]: 1.23 µM
- TGI [41]: 25 µM
- GI50 [57]: 0.849 µM
- TGI [57]: > 55.7 µM
- GI50 [42]: 0.566 µM
- TGI [42]: > 62.7 µM
- GI50 [43]: 0.544 µM
- TGI [43]: 25.4 µM
- GI50 [44]: 1.52 µM
- TGI [44]: 98.3 µM
- TGI [45]: > 38.6 µM
- TGI [58]: > 100 µM
- GI50 [46]: 0.337 µM
- TGI [46]: 2.5 µM
- GI50 [47]: 0.587 µM
- TGI [47]: 1.98 µM and 3.52 µM
- TGI [48]: > 100 µM
- GI50 [49]: 0.426 µM
- TGI [49]: > 100 µM
- GI50 [50]: 3.73 µM
- TGI [50]: > 100 µM
- GI50 [51]: 1.68 µM
- TGI [51]: > 100 µM
- GI50 [52]: 5.16 µM
- TGI [52]: > 83 µM
- TGI [53]: > 100 µM
- GI50 [54]: 0.88 µM
- TGI [54]: > 100 µM
- GI50 [55]: 4.09 µM
- TGI [55]: > 100 µM
- GI50 [56]: 1.45 µM
- TGI [56]: 9.66 µM and 6.95 µM
